This is an account of results in publication PMC12169614, “Exploring Long Arm Amide-Linked Side Chains in the Design of Antifungal Azole Inhibitors of Sterol 14α-Demethylase (CYP51)” (Journal of Medicinal Chemistry, 2025).

The subject of data set [1] is Y2747 OE AfCYP51B AfCPR AfERG6. In words: MIC80 determination, strain Y2747. The format is cell-based, S. cerevisiae. The method, boiled down:
(§1)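 Cells were seeded at OD600 0.005 (1.5 × 10^4 CFU) and incubated at 30 °C with 200 rpm shaking, 48 h for S. cerevisiae strains and 24 h for C. albicans. Growth was read as OD600. MIC80 came from triplicate measurements on pools of 4 clones per strain across three experiments.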

A further data set addresses CYP2D6 (Homo sapiens, UniProt P10635). In words: biochemical. The following applies: human liver drug metabolizing enzyme; read-out: CYP IC50 2D6.
For data set [2], the system named is Y2746 OE AfCYP51A AfCPR AfERG6. In words: MIC80 determination, strain Y2746. In kind it is cell-based, S. cerevisiae. The conditions noted are these: Saccharomyces cerevisiae. The method, boiled down:
as §1

The next data set addresses CaCYP51 Y132F (Candida albicans, UniProt P10613, Y132F). In words: Reconstituted CYP51 activity assay, Y132F. In kind it is biochemical, C. albicans. The following applies: 1 μM CaCyp51, 50 μM lanosterol; duplicate, mean ± SD. Here is the method:
(§2) The reconstituted CYP51 assay previously described contained 1 μM CaCyp51, 2 μM Homo sapiens cytochrome P450 reductase and 50 μM lanosterol in a final volume of 500 μL. After the addition of azole in DMSO (2.5 μL), reactions were incubated at 37 °C for 10 min prior to initiation by the addition of 100 μL 20 mM β-NADPH-Na4. Sterol substrates and products were extracted with ethyl acetate, derivatized with N,O-bis(trimethylsilyl)-trifluoroacetamide (BSTFA)–trimethylchlorosilane (TMCS) (99:1) in the presence of anhydrous pyridine, and analyzed by GC/MS as described previously. IC50 determinations were performed in duplicate. Nonlinear regression of inhibitor concentration vs normalized response was calculated by GraphPad Prism 10.4.0 for Windows (GraphPad Software, Boston, Massachusetts, USA, www.graphpad.com).

The next data set concerns Y2301 OE ScCYP51 Y140F. In words: MIC80 determination, strain Y2301. The format is cell-based, S. cerevisiae. The following applies: Saccharomyces cerevisiae. Summed up: as §1
Data set [3] deals with Y2513 ScCYP51 Y140H mutant. In words: Agarose (disk) diffusion assay, strain Y2513. The format is cell-based, S. cerevisiae. The following applies: 10 nmol/disk, 30 °C, 48 h. The source says:
(§3) Final compounds were screened as racemic mixtures using agarose diffusion assays to visualize their inhibitory activity against a panel of recombinant S. cerevisiae strains i.e., S. cerevisiae strains expressing control levels of wild-type CYP51 (ScCYP51), overexpressed wild-type ScCYP51, overexpressed azole-resistant ScCYP51 Y140F/H mutations and overexpressed C. albicans efflux pumps MDR1a or CDR1B (Figure and Table S1).
(§4) The susceptibilities of S. cerevisiae and Candida species strains to azole compounds were observed as zones of growth inhibition in agarose diffusion assays. The disk diffusion assays were carried out as described by Keniya et al. Complete supplement mixture (CSM) agarose (0.6% agarose [wt/vol]; 20 mL of synthetic defined medium (SD); pH 6.8–7) was solidified in a rectangular Petri dish which was overlaid with CSM agarose (0.6% [wt/vol]; 5 mL; pH 6.8–7) seeded with yeast cells at an optical density (OD600) of 0.008 (118,000 cells per 1 mL of overlay). Azole compounds (10 nmol/disk) were applied to sterile BBL paper disks (Becton Dickinson Co., Sparks, MD) and placed on solidified overlays. Cell growth was assessed after incubation at 30 °C for 48 h.

The test system of the next data set is Y2513 OE ScCYP51 Y140H. In words: MIC80 determination, strain Y2513. The format is cell-based, S. cerevisiae. The following applies: Saccharomyces cerevisiae. Summed up: as §1
The next data set concerns the target CaCYP51 Y132H + K143R (Candida albicans, UniProt P10613, K143R/Y132H). In words: Reconstituted CYP51 activity assay, Y132H + K143R. The following applies: 1 μM CaCyp51, 50 μM lanosterol; duplicate, mean ± SD. The format is biochemical, C. albicans. The procedure:
as §2

The subject of the next data set is MCF-10A cells. In words: Viability (CellTiter Blue) assay. The following applies: 48 h, 10 μM to 1 pM. In kind it is cell-based, human. The procedure:
Human epithelial breast cells, MCF-10A, were routinely cultured in DMEM/F-12 (Fisher Scientific, Loughborough, UK) containing 5% heat-inactivated horse serum (ThermoFisher Scientific, UK), 20 ng/mL hEGF (Merck Life Science, Dorset, UK), 500 ng/mL hydrocortisone (Merck Life Science, Dorset, UK) and 10 μg/mL insulin (Merck Life Science, Dorset, UK) under tissue culture conditions (37 °C, 5% CO2 in a humidified incubator). Cells were passaged upon reaching confluency using 0.25% Trypsin/EDTA (Fisher Scientific, Loughborough, UK) for a maximum of 15 passages from defrosting. […].
Cells were seeded in 100 μL of complete medium per well in a black, flat-bottomed, 96-well tissue-culture-treated plate (Fisher Scientific, Loughborough, UK) at a density of 4000 cells/well and incubated under tissue culture conditions for 24 h. Cells were then treated by mixing in an additional 100 μL of drug/diluent control in complete medium to give final concentrations of 10 μM–1 pM. DMSO was used as a vehicle control, and as a positive toxic control, staurosporine was added at a final concentration of 10 μM. Cells were then incubated for 48 h under tissue culture conditions before the treatments were replaced with fresh media before performing the CellTiter Blue assay (Promega, Southampton, UK) was performed following the manufacturer's instructions. […]
A general note: The colour change of resazurin is a common sign of viable cells or microbes.

In a further data set the test system is Y570 OE CaCDR1B. In words: MIC80 determination, strain Y570. The format is cell-based, S. cerevisiae. The method, boiled down:
as §1

The test system of a further data set is Y2765 OE CauMDR1. In words: MIC80 determination, strain Y2765. The format is cell-based, S. cerevisiae. The conditions noted are these: Saccharomyces cerevisiae. The procedure:
Cells were seeded at an OD600 nm of 0.005 (1.5 × 10^4 CFU), and the plates were incubated at 30 °C with shaking at 200 rpm for 48 h for S. cerevisiae strains and 24 h for C. albicans . Cell growth was assessed by measuring the OD600 nm using a Synergy 2 multimode plate reader (BioTek Instruments, VT, USA). Each MIC80 was determined using triplicate measurements for pools of 4 clones of each strain in three separate experiments.

The next data set relates to Y2716 OE CpCYP51 Y132F. In words: MIC80 determination, strain Y2716. In kind it is cell-based, S. cerevisiae. The method, boiled down:
as §1

Another data set deals with Y2651 OE CYP51 F5 RaCPR. In words: MIC80 determination, strain Y2651. The format is cell-based, S. cerevisiae. The following applies: Saccharomyces cerevisiae. Summed up: as §1
The next data set concerns Y2300 OE ScCYP51. In words: MIC80 determination, strain Y2300. The format is cell-based, S. cerevisiae. The following applies: Saccharomyces cerevisiae. The method, boiled down:
as §1

Data set [4] has as its system Y570 ABC efflux pump CaCDR1B overexpressed. In words: Agarose (disk) diffusion assay, strain Y570. In kind it is cell-based, S. cerevisiae. The following applies: 10 nmol/disk, 30 °C, 48 h.
Description: as §3, §4

The test system of a further data set is Y2721 OE CpCYP51. In words: MIC80 determination, strain Y2721. The format is cell-based, S. cerevisiae. Summed up:
as §1

CaCYP51 Y132H + K143R, sequence (P10613 whole entry Y132H/K143R): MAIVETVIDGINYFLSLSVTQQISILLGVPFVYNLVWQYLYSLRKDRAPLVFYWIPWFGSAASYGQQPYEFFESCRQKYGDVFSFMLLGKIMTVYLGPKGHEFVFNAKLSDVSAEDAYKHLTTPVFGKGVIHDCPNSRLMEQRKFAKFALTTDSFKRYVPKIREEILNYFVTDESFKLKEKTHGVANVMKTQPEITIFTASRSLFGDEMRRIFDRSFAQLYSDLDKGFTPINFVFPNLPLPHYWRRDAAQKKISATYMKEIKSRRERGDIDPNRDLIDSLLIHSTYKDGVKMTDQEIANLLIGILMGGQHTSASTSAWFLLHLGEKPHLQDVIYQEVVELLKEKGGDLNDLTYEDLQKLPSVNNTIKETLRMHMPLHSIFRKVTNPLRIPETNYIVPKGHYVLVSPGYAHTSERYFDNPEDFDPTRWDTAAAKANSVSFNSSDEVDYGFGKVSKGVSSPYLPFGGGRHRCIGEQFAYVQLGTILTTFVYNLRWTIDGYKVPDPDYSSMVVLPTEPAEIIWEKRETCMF
CYP2D6, sequence (P10635 whole entry): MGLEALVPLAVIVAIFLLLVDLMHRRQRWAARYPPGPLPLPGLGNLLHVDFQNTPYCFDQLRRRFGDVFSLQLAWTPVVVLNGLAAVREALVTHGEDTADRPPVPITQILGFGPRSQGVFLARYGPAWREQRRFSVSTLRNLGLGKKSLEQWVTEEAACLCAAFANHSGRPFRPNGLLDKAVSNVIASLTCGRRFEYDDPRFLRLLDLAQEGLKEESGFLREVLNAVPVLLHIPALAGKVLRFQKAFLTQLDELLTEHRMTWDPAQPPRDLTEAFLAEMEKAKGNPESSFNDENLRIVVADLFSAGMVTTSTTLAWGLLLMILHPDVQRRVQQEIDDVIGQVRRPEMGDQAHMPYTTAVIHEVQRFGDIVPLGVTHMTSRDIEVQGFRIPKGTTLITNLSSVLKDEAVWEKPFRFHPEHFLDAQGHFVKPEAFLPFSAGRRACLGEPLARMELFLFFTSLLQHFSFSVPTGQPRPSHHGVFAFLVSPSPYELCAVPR
CaCYP51 Y132F, sequence (P10613 whole entry Y132F): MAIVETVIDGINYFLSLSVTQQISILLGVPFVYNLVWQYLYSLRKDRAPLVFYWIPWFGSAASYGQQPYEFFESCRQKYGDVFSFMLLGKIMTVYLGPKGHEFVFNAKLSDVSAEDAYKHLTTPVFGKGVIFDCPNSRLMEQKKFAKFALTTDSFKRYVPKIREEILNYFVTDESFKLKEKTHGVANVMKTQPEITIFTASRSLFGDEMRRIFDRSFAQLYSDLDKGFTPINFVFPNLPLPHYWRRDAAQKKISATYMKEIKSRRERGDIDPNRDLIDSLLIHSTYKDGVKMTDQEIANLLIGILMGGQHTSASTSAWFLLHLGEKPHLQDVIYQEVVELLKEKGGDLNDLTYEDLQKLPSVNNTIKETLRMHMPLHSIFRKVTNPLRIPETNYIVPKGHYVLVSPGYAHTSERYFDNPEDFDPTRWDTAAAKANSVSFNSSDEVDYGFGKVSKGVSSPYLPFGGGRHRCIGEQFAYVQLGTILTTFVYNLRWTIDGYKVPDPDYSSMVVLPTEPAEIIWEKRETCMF

What is called MIC is the smallest concentration in the dilution series that meets the test's criterion for growth inhibition. Usually MIC80 stands for an inhibitory concentration at the 80% level, which refers to growth in some studies and to a panel of isolates in others. Broadly, the IC50 is the midpoint of a concentration-inhibition curve. For the molecule `O=C(NCC(O)(Cn1cncn1)c1ccc(F)cc1F)c1ccc(-c2ccc(OC(F)(F)F)cc2)cc1` (centres unmarked) [Compound 22, N-(2-(2,4-Difluorophenyl)-2-hydroxy-3-(1H-1,2,4-triazol-1-yl)propyl)-4’-(trifluoromethoxy)-[1,1’-biphenyl]-4-carboxamide], the minimum inhibitory concentration (MIC) in data set [1] (Aspergillus fumigatus, read-out: MIC (nM) A. fumigatus model Y2747) stood at 72 ± 29 nM; with Y2301 OE ScCYP51 Y140F (read-out: MIC (nM) S. cerevisiae Y2301), 93 ± 46 nM; in the data set with Y2513 OE ScCYP51 Y140H (read-out: MIC (nM) S. cerevisiae Y2513), 78 ± 56 nM; in the data set on Y570 OE CaCDR1B (Candida albicans, read-out: MIC (nM) C. albicans model Y570), 5800 nM; in the data set on Y2300 OE ScCYP51 (read-out: MIC (nM) S. cerevisiae Y2300), 114 ± 14 nM; in the data set with Y2721 OE CpCYP51 (read-out: MIC (nM) C. parapsilosis model Y2721) it was 99 nM. The MIC80 was found to be 0.072 ± 0.029 µM in data set [1] (Saccharomyces cerevisiae); 12.4 µM in data set [2]; 0.093 ± 0.046 µM in the data set with Y2301 OE ScCYP51 Y140F (48 h, pH 6.8); 0.078 ± 0.056 µM with Y2513 OE ScCYP51 Y140H (48 h, pH 6.8); 5.8 µM in the data set with Y570 OE CaCDR1B (Saccharomyces cerevisiae, 48 h, pH 6.8); 0.059 ± 0.014 µM in the data set with Y2765 OE CauMDR1. Further, the MIC80 with Y2716 OE CpCYP51 Y132F (Saccharomyces cerevisiae) is 0.21 ± 0.043 µM; in the data set on Y2651 OE CYP51 F5 RaCPR, 1.36 ± 0.907 µM; with Y2300 OE ScCYP51 (48 h, pH 6.8), 0.114 ± 0.014 µM; with Y2721 OE CpCYP51 (Saccharomyces cerevisiae) it was 0.099 µM. Moreover, the results for the IC50 on CYP2D6, on CaCYP51 Y132F and on CaCYP51 Y132H + K143R were above 25 µM, 1.24 ± 0.0379 µM and 8.49 ± 1.27 µM, respectively. The results for the “zone of growth inhibition (inhibitory activity in words)” value in data set [3] and in data set [4] were “unaffected inhibition zone size” and “conferred resistance”, respectively. The “cell viability (tolerance in words)” value with MCF-10A cells is given as “very well tolerated”. In the data set with Y2716 OE CpCYP51 Y132F (MIC80 Y2716 versus Y2721), the “increase in resistance owing to the CpCYP51 Y132F mutation” value is 2 fold.
